This is an account of results in article PMC2518627 (Analytical Biochemistry, 2007).

For data set [1], the system named is NAADP binding protein from sea urchin (L. pictus) egg homogenate. Briefly: NAADP radioreceptor binding assay (displacement of [32P]NAADP). The arrangement: species or system Lytechinus pictus. Particulars: for IC50: read-out: IC50 (displacement of [32P]NAADP binding), 1% sea urchin egg homogenate, 25 °C. Here is the method:
First, 25 μl of test sample was added to each tube. Second, 125 μl of 1% (v/v) sea urchin egg homogenate in intracellular medium was added and allowed to incubate for 10 min at 25 °C. […] The tubes were then incubated at room temperature for a further 10 min at 25 °C. Note that the order of addition is important to maximize the sensitivity of the assay. […] Washing was carried out three times using 1 ml of a buffer containing 20 mM Hepes and 500 mM potassium acetate (pH 7.4).
Radioactivity was determined by placing the filter circles in a scintillation vial containing 10 ml H2O, followed by Cerenkov scintillation counting.
Filter papers were wrapped in cling film and then placed in a cassette to expose a storage phosphor screen (GE Healthcare) for 1 to 4 h. The screen was then scanned using a Typhoon 9400 scanner (GE Healthcare) at a resolution of 100 μm. The resulting image was then analyzed using ImageQuant (GE Healthcare).
Samples are then filtered using a cell harvester. […] Sample concentrations may then be determined from the standard curve.

The nature of data set [2]: Stability of nucleotides under different pH conditions (HPLC). Particulars: 1 mM, 6 h. The class given is physicochemical. Here is the method: All high-performance liquid chromatography (HPLC) was carried out on an anion exchange resin (AGMP1, Bio-Rad, USA), packed in 150 × 2.5-mm Omnifit columns, using a concave upward gradient of trifluoroacetic acid (TFA), delivered by a Waters 600e pump, as described previously. Detection was performed by a UV detector (Waters 2487, UK) at 254 nm.
Samples were then neutralized with their base equivalence of either Tris base (for acidic solutions) or Hepes acid (for basic solutions) as applicable. Samples were analyzed by HPLC as described above, with elution times being determined from standard runs with known compounds.

The subject of another data set is human NAD kinase. The arrangement: method as in PMID 11594753. Particulars: cited from earlier work.
The subject of a further data set is pancreatic acinar cells. Put plainly: NAADP levels in pancreatic acinar cells preincubated with BAPTA-AM. The class given is cell-based, CD1 mice. The procedure: Cells may be prepared in any suitable manner; gametes, isolated cells, chopped tissue, and cells in culture all have been used successfully. Cells were then exposed to agonist, and at the appropriate time points the reaction in cells was stopped by the addition of 0.75 M ice-cold HClO4 added as an equal volume of 1.5 M solution. Sonication (Jencons Vibracell at amplitude 60) was carried out to disrupt the cells, which were then placed on ice for 15 min. The denatured protein was pelleted by centrifugation at 9000g for 10 min and stored at –80 °C for later analysis. Supernatant was neutralized with 1 M KHCO3, added as an equal volume of 2 M solution, and vortexed. The resulting KClO4 precipitate was removed by centifugation at 9000g for 10 min. Samples were stored at –80 °C for later analysis.
Pancreatic acinar cells were prepared as described previously. Briefly, pancreata were excised from 8- to 10-week-old male CD1 mice and were finely chopped before incubation with 200 U/ml collagenase for 15 min at 37 °C. The digested tissue was then washed and resuspended to 10 ml with buffer of the following composition: 140 mM NaCl, 4.7 mM KCl, 1 mM MgCl2, 1 mM CaCl2, 10 mM Hepes, and 10 mM glucose (pH 7.4). Protease inhibitor cocktail tablets (EDTA free, Roche Diagnostics, UK), one tablet per 50 ml, were added to this solution before use. The suspension was triturated, and supernatant that contained dispersed cells was collected into a new tube. After centrifugation at 800g for 3 min at 4 °C, the supernatant was discarded and the cell pellet was resuspended for further trituration and centrifugation. The resulting supernatant was discarded, and the cells were kept in buffer supplemented with 1 mM CaCl2 at room temperature on a rocking board for 30 min before use. Prior to use, the cells were centrifuged at 800g for 1 min at 4 °C. The cells were suspended in the above buffer without the addition of protease inhibitors. Pancreatic acinar cells were aliquoted into tubes. […]

The mark [3] stands for this setting: maximum concentration tested 100 μM.
Where [4] appears, read: maximum concentration tested 2 mM.
Setting [5] is: 100 pM CCK after preincubation with 20 μM BAPTA-AM.

Take `Nc1ncnc2c1ncn2[C@@H]1O[C@H](COP(=O)(O)OP(=O)(O)OP(=O)(O)O)[C@@H](O)[C@H]1O` [ATP]: the “Displacement of NAADP at the maximum concentration tested” value (“Displacement of NAADP” for short) in data set [1] (setting [3]) is “failed to displace”.
With `NC(=O)C1=CN([C@@H]2O[C@H](COP(=O)(O)OP(=O)(O)OC[C@H]3O[C@@H](n4cnc5c(N)ncnc54)[C@H](OP(=O)(O)O)[C@@H]3O)[C@@H](O)[C@H]2O)C=CC1` [NADPH], the “Stability at pH 7.2” value in data set [2] (50 mM Hepes (pH 7.2)) is listed as “remained stable”. For the same molecule, the “Stability at pH 0.88” value in data set [2] (0.75 M HClO4 (pH 0.88)) was “became unstable”. In data set [2] (0.75 M HClO4/1 M KHCO3 (pH 8.6)), the “Stability at pH 8.6” value is recorded as “became unstable”. In data set [2] (1 M K2CO3 (pH 11)), the “Stability at pH 11” value was “similarly unstable”. Besides, the “Stability at pH 9.1” value in data set [2] (1 M KHCO3 (pH 9.1)) was “became unstable”. For the same molecule, the IC50 in data set [1] was 6.3 µM.
On to `O=P(O)(O)O[C@@H]1[C@H](O)[C@H](O)[C@@H](OP(=O)(O)O)[C@H](OP(=O)(O)O)[C@H]1O` [IP3, D-myo-inositol 1,4,5-trisphosphate], for which the “Displacement of NAADP” value in data set [1] (setting [3]) is given as “failed to displace”.
As for `NC(=O)C1=CN([C@@H]2O[C@H](COP(=O)(O)OP(=O)(O)OC[C@H]3O[C@@H](n4cnc5c(N)ncnc54)[C@H](O)[C@@H]3O)[C@@H](O)[C@H]2O)C=CC1` [NADH], in data set [1] (setting [4]), the “Displacement of NAADP” value was “failed to displace”.
Take `Nc1ncnc2c1ncn2[C@@H]1O[C@H](COP(=O)(O)OP(=O)(O)OC[C@H]2OC(O)[C@H](O)[C@@H]2O)[C@@H](O)[C@H]1O` (stereo partly shown) [ADPR]: the “Displacement of NAADP” value in data set [1] (setting [3]) is “failed to displace”.
Turning to `Nc1ncnc2c1ncn2[C@@H]1O[C@H](COP(=O)(O)OP(=O)(O)OC[C@H]2O[C@@H]([n+]3cccc(C(=O)O)c3)[C@H](O)[C@@H]2O)[C@@H](O)[C@H]1O` [NAAD, nicotinic acid adenine dinucleotide], the IC50 in data set [1] was determined as 51 µM.
Turning to `O=C(O)c1cccnc1` [nicotinic acid], the “Displacement of NAADP” value in data set [1] (setting [3]) is on record as “failed to displace”.
Regarding `Nc1ncnc2c1ncn2[C@@H]1O[C@H](COP(=O)(O)O)[C@@H](O)[C@H]1O` [AMP], the “Displacement of NAADP” value in data set [1] (setting [3]) is reported as “failed to displace”.
In the case of `NC(=O)c1ccc[n+]([C@@H]2O[C@H](COP(=O)([O-])OP(=O)(O)OC[C@H]3O[C@@H](n4cnc5c(N)ncnc54)[C@H](O)[C@@H]3O)[C@@H](O)[C@H]2O)c1` [NAD, nicotinamide adenine dinucleotide], in the data set with human NAD kinase, the Km was 800 µM. Moreover, in data set [1] (setting [4]), the “Displacement of NAADP” value is on record as “failed to displace”.
With `N=c1c2ncn3c2ncn1[C@@H]1O[C@H](COP(=O)(O)OP(=O)(O)OC[C@H]2O[C@@H]3[C@H](O)[C@@H]2O)[C@@H](O)[C@H]1O` [cADPR, cyclic ADP ribose], the IC50 in data set [1] worked out at 2.5 µM.
On to cholecystokinin [CCK], for which, in the data set on pancreatic acinar cells (setting [5]), the “Change in NAADP levels” value is “continuous increase” and the “Duration of increase in NAADP levels” value is “at least 20 min”.
As for `Nc1ncnc2c1ncn2[C@@H]1O[C@H](COP(=O)(O)OP(=O)(O)O)[C@@H](O)[C@H]1O` [ADP], in data set [1] (setting [3]), the “Displacement of NAADP” value is “failed to displace”.
As to “nicotinamide adenine dinucleotide phosphate [NADP]”, the IC50 in data set [1] was 21 µM.
Consider `CC(=O)OCOC(=O)CN(CC(=O)OCOC(C)=O)c1ccccc1OCCOc1ccccc1N(CC(=O)OCOC(C)=O)CC(=O)OCOC(C)=O` [BAPTA-AM, 1,2-bis(2-aminophenoxy)ethane-N,N,N′,N′-tetraacetic acid tetrakis (acetoxymethyl) ester], for which the “Change in NAADP levels” value in the data set with pancreatic acinar cells (20 μM BAPTA-AM alone, followed by control buffer) is “no change”.
Take “nicotinic acid adenine dinucleotide phosphate [NAADP]”: the IC50 in data set [1] was found to be 0.00054 µM.

What is called IC50 is the concentration that gives 50% inhibition. One may read the Km as the substrate concentration at which the rate is half of its maximum.
